# In ChEMBL document CHEMBL3286137, “Design, synthesis and structure-activity relationships of novel 4-phenoxyquinoline derivatives containing pyridazinone moiety as potential antitumor agents” (Eur J Med Chem, 2014):
# Tests used:
# [1] = molecular target: T1, Amine oxidase [copper-containing] 3 (Homo sapiens, UniProt Q16853); assay: Inhibition of human VAP1
# T1 sequence (Q16853 whole entry): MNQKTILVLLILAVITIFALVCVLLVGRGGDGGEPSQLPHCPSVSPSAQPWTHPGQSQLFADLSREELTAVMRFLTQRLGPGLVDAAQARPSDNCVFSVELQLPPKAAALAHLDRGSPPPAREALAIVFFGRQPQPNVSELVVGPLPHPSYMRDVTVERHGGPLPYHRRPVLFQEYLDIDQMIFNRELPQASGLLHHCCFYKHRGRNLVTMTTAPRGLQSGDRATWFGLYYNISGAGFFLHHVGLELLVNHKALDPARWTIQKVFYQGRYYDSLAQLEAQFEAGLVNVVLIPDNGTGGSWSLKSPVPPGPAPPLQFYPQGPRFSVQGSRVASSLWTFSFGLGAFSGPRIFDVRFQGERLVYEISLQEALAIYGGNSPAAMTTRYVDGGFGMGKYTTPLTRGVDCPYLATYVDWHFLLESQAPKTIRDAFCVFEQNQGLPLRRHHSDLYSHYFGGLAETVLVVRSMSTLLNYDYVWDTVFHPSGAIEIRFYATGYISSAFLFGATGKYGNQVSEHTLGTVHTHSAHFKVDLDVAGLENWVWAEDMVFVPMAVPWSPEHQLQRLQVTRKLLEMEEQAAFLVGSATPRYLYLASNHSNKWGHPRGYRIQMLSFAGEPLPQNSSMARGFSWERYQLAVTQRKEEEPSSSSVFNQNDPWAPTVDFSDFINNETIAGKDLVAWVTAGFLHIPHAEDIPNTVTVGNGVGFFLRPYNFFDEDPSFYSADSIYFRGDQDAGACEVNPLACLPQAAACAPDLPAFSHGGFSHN
# [2] = Cytotoxicity against human U87MG cells assessed as inhibition of cell growth after 72 hrs by MTT assay; assay type: functional, cell-based, U-87MG ATCC; conditions: U-87 MG
# HT-29 [3] = assay: cells; conditions: Homo sapiens, HT-29, 72 h
# cells [4] = conditions: Homo sapiens, NCI-H460, 72 h
# A549 = assay: cells; conditions: Homo sapiens, A549, 72 h
# cells [5] = conditions: Homo sapiens, MKN-45, 72 h
# [6] = molecular target: Hepatocyte growth factor receptor (Homo sapiens, UniProt P08581); assay: Inhibition of c-Met (unknown origin) using poly (Glu,Tyr)4:1 as substrate by homogeneous time-resolved fluorescence assay
# [7] = molecular target: Mast/stem cell growth factor receptor Kit (Homo sapiens, UniProt P10721); assay: Inhibition of c-Kit (unknown origin)
# [8] = molecular target: T2, Receptor-type tyrosine-protein kinase FLT3 (Homo sapiens, UniProt P36888); assay: Inhibition of Flt3 (unknown origin)
# T2 sequence (P36888 whole entry): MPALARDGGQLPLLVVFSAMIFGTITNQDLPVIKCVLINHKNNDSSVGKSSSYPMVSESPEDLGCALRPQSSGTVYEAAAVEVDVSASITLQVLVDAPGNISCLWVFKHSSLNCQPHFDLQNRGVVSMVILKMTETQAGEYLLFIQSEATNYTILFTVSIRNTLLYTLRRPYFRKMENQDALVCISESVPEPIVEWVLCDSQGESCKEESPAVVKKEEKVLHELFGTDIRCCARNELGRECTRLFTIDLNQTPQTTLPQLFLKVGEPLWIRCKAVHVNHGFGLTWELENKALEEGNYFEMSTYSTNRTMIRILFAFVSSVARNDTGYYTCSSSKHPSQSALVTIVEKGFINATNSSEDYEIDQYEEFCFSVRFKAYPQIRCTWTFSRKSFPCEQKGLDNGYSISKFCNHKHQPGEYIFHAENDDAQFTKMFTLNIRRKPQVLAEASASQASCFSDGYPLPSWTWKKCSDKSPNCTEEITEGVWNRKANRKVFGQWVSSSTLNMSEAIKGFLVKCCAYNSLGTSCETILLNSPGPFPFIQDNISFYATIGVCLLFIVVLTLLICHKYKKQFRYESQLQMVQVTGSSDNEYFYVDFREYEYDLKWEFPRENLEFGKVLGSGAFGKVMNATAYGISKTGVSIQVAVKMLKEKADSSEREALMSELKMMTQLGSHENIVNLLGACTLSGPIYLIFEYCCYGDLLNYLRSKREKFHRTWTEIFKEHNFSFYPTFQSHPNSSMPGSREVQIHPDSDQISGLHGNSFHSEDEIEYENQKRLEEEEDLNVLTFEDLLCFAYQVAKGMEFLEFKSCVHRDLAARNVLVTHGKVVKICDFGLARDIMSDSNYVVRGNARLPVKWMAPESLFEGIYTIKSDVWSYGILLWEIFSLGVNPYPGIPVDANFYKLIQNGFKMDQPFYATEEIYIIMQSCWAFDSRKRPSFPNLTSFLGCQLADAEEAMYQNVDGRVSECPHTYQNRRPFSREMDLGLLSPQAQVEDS
# [9] = molecular target: Platelet-derived growth factor receptor beta (Homo sapiens, UniProt P09619); assay: Inhibition of PDGFR beta (unknown origin)
# [10] = molecular target: Vascular endothelial growth factor receptor 2 (Homo sapiens, UniProt P35968); assay: Inhibition of KDR (unknown origin)
# [11] = molecular target: Epidermal growth factor receptor (Homo sapiens, UniProt P00533); assay: Inhibition of EGFR (unknown origin)
# HT-29 [12] = assay: Ratio of foretinib IC50 to compound IC50 for human HT-29 cells; assay type: functional
# [13] = Ratio of foretinib IC50 to compound IC50 for human H460 cells; assay type: functional
Structure (SMILES),IC50 (HT-29 [3]),IC50 (cells [4]),IC50 (A549),IC50 (cells [5]),IC50 [6],IC50 [7],IC50 [8],IC50 [9],IC50 [10],IC50 [11],IC50 [1],IC50 [2],Ratio IC50 (HT-29 [12]),Ratio IC50 [13]
O=c1ccc(=O)[nH][nH]1,,,,,,,,,,,0.02 µM,,,
COc1cc2c(Oc3ccc(NC(=O)c4nn(-c5ccccc5C)c(=O)cc4C)cc3F)ccnc2cc1OCCCN1CCCC1,1.4 µM,1.59 µM,1.3 µM,0.76 µM,,,,,,,,2.96 µM,,
COc1cc2c(Oc3ccc(NC(=O)c4nn(-c5ccccc5C(F)(F)F)c(=O)cc4C)cc3F)ccnc2cc1OCCCN1CCCC1,0.14 µM,0.21 µM,0.13 µM,0.1 µM,,,,,,,,1.01 µM,,
COc1cc2c(Oc3ccc(NC(=O)c4nn(-c5ccccc5OC(F)(F)F)c(=O)cc4C)cc3F)ccnc2cc1OCCCN1CCC(C)CC1,0.25 µM,0.29 µM,0.09 µM,0.07 µM,,,,,,,,0.8 µM,,

# Now from value to compound, other results behind:
IC50 (HT-29 [3]),IC50 (cells [4]),IC50 (A549),IC50 (cells [5]),IC50 [6],IC50 [7],IC50 [8],IC50 [9],IC50 [10],IC50 [11],Structure (SMILES),IC50 [1],IC50 [2],Ratio IC50 (HT-29 [12]),Ratio IC50 [13]
5.45 µM,4.65 µM,1.1 µM,0.4 µM,,,,,,,COc1ccc(-n2nc(C(=O)Nc3ccc(Oc4ccnc5cc(OCCCN6CCC(C)CC6)c(OC)cc45)c(F)c3)c(C)cc2=O)cc1,,2.84 µM,,
3.79 µM,3.42 µM,2.83 µM,1.63 µM,,,,,,,COc1cc2c(Oc3ccc(NC(=O)c4nn(-c5ccccc5C)c(=O)cc4C)cc3F)ccnc2cc1OCCCN1CCN(C)CC1,,3.72 µM,,
0.22 µM,0.46 µM,0.37 µM,0.12 µM,,,,,,,COc1cc2c(Oc3ccc(NC(=O)c4nn(-c5ccccc5)c(=O)cc4C)cc3F)ccnc2cc1OCCCN1CCCC1,,1.1 µM,,
3.3 µM,3.61 µM,2.77 µM,1.29 µM,,,,,,,COc1ccc(-n2nc(C(=O)Nc3ccc(Oc4ccnc5cc(OCCCN6CCCC6)c(OC)cc45)c(F)c3)c(C)cc2=O)cc1,,2.96 µM,,
0.1 µM,0.13 µM,0.05 µM,0.03 µM,0.00215 µM,0.00432 µM,0.00928 µM,0.0923 µM,0.425 µM,> 10 µM,COc1cc2c(Oc3ccc(NC(=O)c4nn(-c5ccccc5C(F)(F)F)c(=O)cc4C)cc3F)ccnc2cc1OCCCN1CCOCC1,,1.06 µM,1.9,1.5
